Some results are limits rather than exact numbers.

Chain of recombinant human LRRK2 (catalytic domain only [amino acids 970-2527], GST-tagged) (Q5S007 970-2527): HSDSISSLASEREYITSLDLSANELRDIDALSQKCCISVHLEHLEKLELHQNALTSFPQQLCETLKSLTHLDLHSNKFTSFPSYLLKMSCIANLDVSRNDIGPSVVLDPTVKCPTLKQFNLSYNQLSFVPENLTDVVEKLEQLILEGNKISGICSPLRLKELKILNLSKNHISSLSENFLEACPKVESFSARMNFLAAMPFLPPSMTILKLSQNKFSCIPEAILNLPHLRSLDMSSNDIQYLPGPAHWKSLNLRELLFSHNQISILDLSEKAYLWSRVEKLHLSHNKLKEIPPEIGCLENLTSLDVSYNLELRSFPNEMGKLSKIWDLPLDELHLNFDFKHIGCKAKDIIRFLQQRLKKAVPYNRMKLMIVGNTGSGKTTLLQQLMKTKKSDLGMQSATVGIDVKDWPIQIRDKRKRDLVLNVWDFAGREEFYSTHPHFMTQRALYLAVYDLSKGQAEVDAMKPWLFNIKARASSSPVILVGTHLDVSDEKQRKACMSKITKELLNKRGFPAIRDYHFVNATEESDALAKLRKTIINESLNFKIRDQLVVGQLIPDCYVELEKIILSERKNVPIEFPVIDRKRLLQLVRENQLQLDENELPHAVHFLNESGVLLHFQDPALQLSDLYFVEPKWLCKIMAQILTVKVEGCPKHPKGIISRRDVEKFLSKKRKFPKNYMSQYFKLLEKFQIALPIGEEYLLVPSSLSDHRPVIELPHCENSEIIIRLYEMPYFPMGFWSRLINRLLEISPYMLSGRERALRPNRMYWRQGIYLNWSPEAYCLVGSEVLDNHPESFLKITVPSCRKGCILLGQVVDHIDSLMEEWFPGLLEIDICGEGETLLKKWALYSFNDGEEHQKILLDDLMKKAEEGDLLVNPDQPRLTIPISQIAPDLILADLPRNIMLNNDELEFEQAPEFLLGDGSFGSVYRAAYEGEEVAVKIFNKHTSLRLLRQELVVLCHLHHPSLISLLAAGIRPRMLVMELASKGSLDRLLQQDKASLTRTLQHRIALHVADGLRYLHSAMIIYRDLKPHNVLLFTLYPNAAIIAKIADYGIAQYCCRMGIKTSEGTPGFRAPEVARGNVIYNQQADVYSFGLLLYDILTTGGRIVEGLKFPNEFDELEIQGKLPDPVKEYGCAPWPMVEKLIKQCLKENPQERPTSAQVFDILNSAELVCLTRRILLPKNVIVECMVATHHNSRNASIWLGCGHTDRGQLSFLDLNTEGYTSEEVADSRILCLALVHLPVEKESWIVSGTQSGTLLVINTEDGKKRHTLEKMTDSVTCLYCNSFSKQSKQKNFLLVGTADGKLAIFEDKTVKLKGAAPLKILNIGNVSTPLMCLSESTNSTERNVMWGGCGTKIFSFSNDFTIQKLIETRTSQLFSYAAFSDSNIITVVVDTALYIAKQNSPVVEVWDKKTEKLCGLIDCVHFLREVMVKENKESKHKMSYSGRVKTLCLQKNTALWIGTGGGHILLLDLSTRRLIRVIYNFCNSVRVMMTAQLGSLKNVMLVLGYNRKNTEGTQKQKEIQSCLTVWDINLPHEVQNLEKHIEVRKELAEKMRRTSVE

This assay concerns the target recombinant human LRRK2 (catalytic domain only [amino acids 970-2527], GST-tagged) (Homo sapiens (Human), UniProt Q5S007). Put plainly: LRRK2 Enzymatic Assay. Type of assay: biochemical. The conditions noted are these: LRRKtide substrate, [32P]-ATP. The protocol:
LRRKtide substrate (peptide sequence RLGRDKYKTLRQIRQ, derived from human ezrin [amino acids 561-573], moesin [amino acids 539-553] and radixin [amino acids 558-570], obtained from SignalChem, catalogue #L10-58, reconstituted in 20 mM Tris-HCl at pH 7.5 to a final concentration of 1 mg/mL, assay concentration 20 μM) and recombinant human LRRK2 (catalytic domain only [amino acids 970-2527], GST-tagged, expressed in insect cells, obtained from ThermoFisher Scientific, catalogue #PV4874, 0.35 mg/mL, assay concentration 30 nM) were mixed in assay buffer (20 mM Hepes pH 7.5, 10 mM MgCl2, 1 mM EGTA, 0.02% Brij35, 0.02 mg/ml BSA, 0.1 mM Na3VO4, 2 mM DTT, 1% DMSO). Compounds of interest (in DMSO, serial 3-fold dilution from 10 μM to 0.5 nM) or control (1% DMSO) were dispensed into the kinase reaction mixture by Acoustic technology (Echo550; nanoliter range). After incubation at room temperature for 20 minutes, the kinase reaction was initiated by addition of [^32P]-ATP (Specific activity 10 μCi/μl) and the mixture was incubated at room temperature for 2 hours. The reaction was then stopped by spotting the reaction mixture on strips of phosphocellulose P81 paper. Following washing, the radioactivity of the P81 paper was measured and kinase activity data were expressed as the percent remaining kinase activity in test samples compared to vehicle (dimethyl sulfoxide) reactions. IC50 values and curve fits were obtained using Prism (GraphPad Software).
For `Cn1ccc(Nc2nccc(OC[C@H]3CC[C@@H](N)CC3)n2)n1` [Example 3, 4-(((1S,4S)-4-aminocyclohexyl)methoxy)-N-(1-methyl-1H-pyrazol-3-yl) pyrimidin-2-amine], the IC50 was 50 to 200 nM.
Consider `Cn1ccc(Nc2nccc(OC[C@H]3CC[C@H](N)CC3)n2)n1` [Example 4, 4-(((1R,4R)-4-aminocyclohexyl)methoxy)-N-(1-methyl-1H-pyrazol-3-yl)pyrimidin-2-amine], for which the IC50 fell in the range of 50 to 200 nM.
As for `N[C@H]1CC[C@H](COc2ccnc(Nc3ccn(CC(F)F)n3)n2)CC1` [Example 5, 4-(((1R,4R)-4-aminocyclohexyl)methoxy)-N-(1-(2,2-difluoroethyl)-1H-pyrazol-3-yl) pyrimidin-2-amine], the IC50 is 50 to 200 nM.
For `N[C@H]1CC[C@H](COc2ccnc(Nc3cccc(N4CCOCC4)c3)n2)CC1` [Example 6, 4-(((1R,4R)-4-aminocyclohexyl)methoxy)-N-(3-morpholinophenyl) pyrimidin-2-amine], the IC50 is < 50 nM.
Under `N[C@H]1CC[C@H](COc2nc(Nc3ccc(N4CCOCC4)cc3)ncc2C(F)(F)F)CC1` [Example 7, 4-(((1R,4R)-4-aminocyclohexyl)methoxy)-N-(4-morpholinophenyl)-5-(trifluoromethyl) pyrimidin-2-amine] stands > 400 nM; under `COc1cnc(Nc2ccc(N3CCOCC3)cc2)nc1OC[C@H]1CC[C@H](N)CC1` [Example 8, 4-(((1R,4R)-4-aminocyclohexyl)methoxy)-5-methoxy-N-(4-morpholinophenyl) pyrimidin-2-amine], < 50 nM.
For `N[C@H]1CC[C@H](COc2nc(Nc3ccc(N4CCOCC4)cc3)ncc2Cl)CC1` [Example 9, 4-(((1R,4R)-4-aminocyclohexyl)methoxy)-5-chloro-N-(4-morpholinophenyl) pyrimidin-2-amine] the value was < 50 nM; for `N[C@H]1CC[C@H](COc2nc(Nc3ccc(N4CCOCC4)cc3)ncc2F)CC1` [Example 10, 4-(((1R,4R)-4-aminocyclohexyl)methoxy)-5-fluoro-N-(4-morpholinophenyl) pyrimidin-2-amine], < 50 nM.
For the molecule `NC1CCCC(COc2ccnc(Nc3ccc(N4CCOCC4)cc3)n2)C1` (centres unmarked) [Example 11, 4-((3-aminocyclohexyl)methoxy)-N-(4-morpholinophenyl) pyrimidin-2-amine], the IC50 was 50 to 200 nM.
Under `NC[C@H]1CC[C@H](COc2ccnc(Nc3ccc(N4CCOCC4)cc3)n2)CC1` [Example 12, 4-(((1R,4R)-4-(aminomethyl)cyclohexyl)methoxy)-N-(4-morpholinophenyl) pyrimidin-2-amine] stands < 50 nM.
Under `COc1cnc(Nc2ccc(N3CCOCC3)cc2)nc1OC[C@H]1CC[C@H](CN)CC1` [Example 13, 4-(((1R,4R)-4-(aminomethyl)cyclohexyl)methoxy)-5-methoxy-N-(4-morpholinophenyl) pyrimidin-2-amine] stands < 50 nM; under `NC[C@H]1CC[C@H](COc2nc(Nc3ccc(N4CCOCC4)cc3)ncc2Cl)CC1` [Example 14, 4-(((1R,4R)-4-(aminomethyl)cyclohexyl)methoxy)-5-chloro-N-(4-morpholinophenyl) pyrimidin-2-amine], < 50 nM.
For the molecule `N[C@H]1CC[C@@H](COc2ccnc(Nc3ccc(N4CCOCC4)cc3)n2)C1` [Example 15, 4-(((1R,3S)-3-aminocyclopentyl)methoxy)-N-(4-morpholinophenyl) pyrimidin-2-amine], the half-inhibitory concentration (IC50) fell in the range of 50 to 200 nM.
Under `N[C@H]1CC[C@@H](COc2nc(Nc3ccc(N4CCOCC4)cc3)ncc2Cl)C1` [Example 16, 4-(((1R,3S)-3-aminocyclopentyl)methoxy)-5-chloro-N-(4-morpholinophenyl) pyrimidin-2-amine] stands < 50 nM; under `c1cc(OCC2CCNCC2)nc(Nc2ccc(N3CCOCC3)cc2)n1` [Example 17, N-(4-morpholinophenyl)-4-(piperidin-4-ylmethoxy)pyrimidin-2-amine], 200 to 400 nM.
On to `Cc1nn(C(C)(C)C#N)cc1Nc1ncc(F)c(OCC2CCNCC2)n1` [Example 18, 2-(4-((5-fluoro-4-(piperidin-4-ylmethoxy)pyrimidin-2-yl)amino)-3-methyl-1H-pyrazol-1-yl)-2-methylpropanenitrile], for which the IC50 was in the range of 50 to 200 nM.
Under `Cc1nn(C(C)(C)C#N)cc1Nc1nccc(OCC2(F)CCNCC2)n1` [Example 19, 2-(4-((4-((4-fluoropiperidin-4-yl)methoxy)pyrimidin-2-yl)amino)-3-methyl-1H-pyrazol-1-yl)-2-methylpropanenitrile] stands 200 to 400 nM.
For `Cc1nn(C(C)(C)C#N)cc1Nc1ncc(Cl)c(OCC2(F)CCNCC2)n1` [Example 20, 2-(4-((5-chloro-4-((4-fluoropiperidin-4-yl)methoxy)pyrimidin-2-yl)amino)-3-methyl-1H-pyrazol-1-yl)-2-methylpropanenitrile] the value was < 50 nM; for `Cc1nn(C2CC(C#N)C2)cc1Nc1ncc(Cl)c(OCC2(F)CCNCC2)n1` (centres unmarked) [Example 21, 3-(4-((5-chloro-4-((4-fluoropiperidin-4-yl)methoxy)pyrimidin-2-yl)amino)-3-methyl-1H-pyrazol-1-yl)cyclobutane-1-carbonitrile], < 50 nM; for `Cc1c(Nc2ncc(Cl)c(OCC3(F)CCNCC3)n2)cnn1C1CC(C#N)C1` (centres unmarked) [Example 22, 3-(4-((5-chloro-4-((4-fluoropiperidin-4-yl)methoxy)pyrimidin-2-yl)amino)-5-methyl-1H-pyrazol-1-yl)cyclobutane-1-carbonitrile], < 50 nM.
Under `C[C@@H]1CN(c2ccc(Nc3ncc(F)c(OCC4(F)CCNCC4)n3)cc2)C[C@H](C)O1` [Example 23, N-(4-((2R,6S)-2,6-dimethylmorpholino)phenyl)-5-fluoro-4-((4-fluoropiperidin-4-yl)methoxy) pyrimidin-2-amine] stands < 50 nM.
For `Fc1cnc(Nc2ccc(N3CCOCC3)cc2)nc1OCC1(F)CCNCC1` [Example 24, 5-fluoro-4-((4-fluoropiperidin-4-yl)methoxy)-N-(4-morpholinophenyl) pyrimidin-2-amine], the IC50 fell in the range of 50 to 200 nM.
Under `Cc1nn(C(C)(C)C#N)cc1Nc1ncc(F)c(OCC2(F)CCNCC2)n1` [Example 25, 2-(4-((5-fluoro-4-((4-fluoropiperidin-4-yl)methoxy)pyrimidin-2-yl)amino)-3-methyl-1H-pyrazol-1-yl)-2-methylpropanenitrile] stands < 50 nM; under `Cc1nn(C2CC(C#N)C2)cc1Nc1ncc(Cl)c(OCC2CCNCC2F)n1` (centres unmarked) [Example 26, 3-(4-((5-chloro-4-((3-fluoropiperidin-4-yl)methoxy)pyrimidin-2-yl)amino)-3-methyl-1H-pyrazol-1-yl)cyclobutane-1-carbonitrile], 50 to 200 nM; under `Cc1nn(C(C)(C)C#N)cc1Nc1ncc(Cl)c(OCC2CNC2)n1` [Example 27, 2-(4-((4-(azetidin-3-ylmethoxy)-5-chloropyrimidin-2-yl)amino)-3-methyl-1H-pyrazol-1-yl)-2-methylpropanenitrile], > 400 nM.
Under `Cc1nn(C(C)(C)C#N)cc1Nc1ncc(Cl)c(OCC2CC3(CNC3)C2)n1` [Example 28, 2-(4-((4-((2-azaspiro[3.3]heptan-6-yl)methoxy)-5-chloropyrimidin-2-yl)amino)-3-methyl-1H-pyrazol-1-yl)-2-methylpropanenitrile] stands < 50 nM; under `Fc1cnc(Nc2ccc(N3CCOCC3)cc2)nc1OCC1CCNCC1(F)F` (centres unmarked) [Example 29, 4-((3,3-difluoropiperidin-4-yl)methoxy)-5-fluoro-N-(4-morpholinophenyl) pyrimidin-2-amine], < 50 nM; under `C[C@@H]1CN(c2ccc(Nc3ncc(F)c(OCC4CCNCC4(F)F)n3)cc2)C[C@H](C)O1` (stereo partly drawn) [Example 30, 4-((3,3-difluoropiperidin-4-yl)methoxy)-N-(4-((2S,6R)-2,6-dimethylmorpholino)phenyl)-5-fluoropyrimidin-2-amine], < 50 nM.
With `CN[C@H]1CC[C@H](COc2ccnc(Nc3ccc(N4CCOCC4)cc3)n2)CC1` [Example 31, 4-(((1R,4R)-4-(methylamino)cyclo-hexyl)methoxy)-N-(4-morpholinophenyl) pyrimidin-2-amine], the IC50 is < 50 nM.
Regarding `CN[C@H]1CC[C@H](COc2ccnc(Nc3cn(C(C)(C)C#N)nc3C)n2)CC1` [Example 32, 2-methyl-2-(3-methyl-4-((4-(((1R,4R)-4-(methylamino)cyclo-hexyl)methoxy)pyrimidin-2-yl)amino)-1H-pyrazol-1-yl)propanenitrile], the IC50 was < 50 nM.
Under `CN[C@H]1CC[C@H](COc2ccnc(Nc3cnn(C(C)C)c3)n2)CC1` [Example 33] stands > 400 nM; under `CN[C@H]1CC[C@H](COc2ccnc(Nc3cc(F)c(C(=O)N4CCOCC4)cc3OC)n2)CC1` [Example 34, (2-fluoro-5-methoxy-4-((4-(((1R,4R)-4-(methylamino)cyclo-hexyl)methoxy)py-rimidin-2-yl)amino)phenyl) (morpholino) methanone], 50 to 200 nM.

Source of the values: patent US11578061B2, “Inhibitors of LRRK2 kinase” (Halia Therapeutics, Inc., priority 2021, dated 2023).
